According to patent US7745450B2, “Pyrazolo[4,3-d]pyrimidines, processes for their preparation and methods for therapy” (Institute of Experimental Botany, priority 2002, dated 2010):
Like-named read-outs stand apart in the source and are kept apart here. Values belong to the compound of their own block, whether it stands above or below them.

Key:
[1] = molecular target: cdc2a-MS protein (plant CDK, cdc2Ms kinase) (Vicia faba, UniProt A0AAV0YZ35); experiment: CDK inhibitory activity on plant kinases (plant CDK); assay type: biochemical; conditions: histone H1 phosphorylation
Chain of cdc2a-MS protein (plant CDK, cdc2Ms kinase) (A0AAV0YZ35 1-294): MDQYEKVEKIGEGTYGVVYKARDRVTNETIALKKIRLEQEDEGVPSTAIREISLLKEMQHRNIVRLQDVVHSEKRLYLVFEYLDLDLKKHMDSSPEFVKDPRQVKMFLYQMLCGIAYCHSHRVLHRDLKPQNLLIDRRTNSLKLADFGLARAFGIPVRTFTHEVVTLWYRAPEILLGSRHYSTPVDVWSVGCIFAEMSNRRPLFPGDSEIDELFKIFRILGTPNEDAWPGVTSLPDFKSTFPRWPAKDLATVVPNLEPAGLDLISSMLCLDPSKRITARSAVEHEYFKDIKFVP
Description: Protein extraction and purification of pant CDK by binding to p13^suc1-beads or immunopurification with an antibody specific to the cdc2a-MS protein was carried out as described previously (Bögre et al. 1997, Plant Physiol. 113, 1997, 841-852). The MMK1 protein kinase was purified with a specific antibody from Vicia faba extracts as described by Bögre et al. 1997a, Plant Cell 9, 75-83). Protein kinase activity was measures as described above in Example 20. The quantification of radioactivity incorporated into histone H1 or myelin basic protein was undertaken using phosphoimager (FIG. 2).

[2] = test system: CEM (human lymphoblastoid leukemia); experiment: In vitro cytotoxic activity, Calcein AM; assay type: cell-based; conditions: three days
Outline: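 CEM cells were seeded at 10^4/well in DMEM + 10% FBS and exposed to six concentrations from 200 to 0.2 μM, in triplicate, for 3 days at 37 °C and 5% CO2. Viable cells were then measured by Calcein AM fluorescence after 1 h loading.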

[3] = test system: B16; experiment: In vitro cytotoxic activity, Calcein AM; assay type: cell-based; conditions: three days
[4] = test system: DNA synthesis; experiment: Inhibition of DNA synthesis in Xenopus egg extracts; assay type: biochemical; conditions: [α-32P]dATP incorporation after 3 h
Description: Metaphase-arrested Xenopus egg extracts were prepared as described previously by Blow “J. Cell Biol.” 1993; 122:993 and stored in liquid nitrogen. Demembranated Xenopus sperm nuclei were prepared as described. by Blow & Laskey “Cell” 1986; 47:577. After thawing, extracts were supplemented with 25 mM phosphocreatine, 5 μg/ml creatine phosphokinase, 250 μg/ml cycloheximide, [α-^32P]dATP (for DNA synthesis assays). Demembranated sperm nuclei were added to a final sperm concentration of 3 ng/μl DNA extract and CDK inhibitor tested was then added at different concentrations. […] DNA synthesis was assessed by releasing extract into interphase by the addition of 0.3 mM CaCl2 and measuring the total amount of [α-^32P]dATP incorporation after 3 h by TCA co-precipitation.

[5] = molecular target: cdk1/cyclin B (CDC2) (Homo sapiens, UniProt P06493); experiment: CDK inhibition assay, cdk1/cyclin B (CDC2) kinase, histone phosphorylation; assay type: biochemical
Chain of cdk1/cyclin B (CDC2) (P06493 whole entry, species assumed): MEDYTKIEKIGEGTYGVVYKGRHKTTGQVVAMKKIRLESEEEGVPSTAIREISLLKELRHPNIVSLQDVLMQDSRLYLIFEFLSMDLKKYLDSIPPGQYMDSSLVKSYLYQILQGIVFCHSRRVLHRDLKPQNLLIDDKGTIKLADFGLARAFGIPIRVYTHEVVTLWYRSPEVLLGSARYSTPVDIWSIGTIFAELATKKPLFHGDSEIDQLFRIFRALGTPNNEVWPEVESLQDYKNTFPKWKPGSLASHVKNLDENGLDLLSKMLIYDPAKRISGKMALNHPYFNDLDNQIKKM
Chain of cdk1/cyclin B (CDC2) (P14635 whole entry partner, species assumed): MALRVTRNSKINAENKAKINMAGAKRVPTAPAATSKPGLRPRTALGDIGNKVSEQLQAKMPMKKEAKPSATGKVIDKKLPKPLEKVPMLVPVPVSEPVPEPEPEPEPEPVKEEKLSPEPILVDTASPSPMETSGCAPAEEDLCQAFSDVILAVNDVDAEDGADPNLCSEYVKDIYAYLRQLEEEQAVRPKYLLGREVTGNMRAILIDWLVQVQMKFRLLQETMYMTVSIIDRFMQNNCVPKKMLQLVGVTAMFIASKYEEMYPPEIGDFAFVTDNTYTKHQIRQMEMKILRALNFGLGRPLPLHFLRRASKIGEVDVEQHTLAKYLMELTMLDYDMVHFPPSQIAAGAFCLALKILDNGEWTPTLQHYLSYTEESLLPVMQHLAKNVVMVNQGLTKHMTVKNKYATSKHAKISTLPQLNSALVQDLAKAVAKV
Outline: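 Radiometric endpoint kinase assay under linear conditions: histone (1 mg/ml) phosphorylated with 15 μM ATP and [γ-32P]ATP in 50 mM HEPES pH 7.4, 10 mM MgCl2, 1 mM DTT. IC50 obtained graphically from dose-response curves of % maximal activity, read by imaging analyzer.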

[6] = test system: β-adrenergic receptors; experiment: Modulation of isoproterenol-induced cAMP synthesis in rat C6 glioma; assay type: cell-based; conditions: cAMP synthesis induced by 5 μM (−) isoproterenol, simultaneous addition, 30 min
Description: Mechanism of action of novel compounds is presented on FIG. 3. Rat C6 glioma (ATCC N° CCL107) was cultivated in monolayer in serum-free chemically defined medium containing Ham's F10/minimal essential medium (1:1 vol/vol), 2 mM L-glutamine, 1% (vol/vol) minimal essential medium vitamins (100×), 1% (vol/vol) minimal essential medium nonessential amino acids (100×), 100 U/ml penicillin, 100 μg/ml streptomycin and 30 nM sodium selenide. Incubation was at 37° C. in a humidified atmosphere. Assays were performed in the logarithmic growth phase at a density of 2.5×10^5 cells/cm^2. Intracellular cAMP synthesis was induced by addition of 5 μM (−) isoproterenol. After 30 min incubation at 37° C. the medium was removed and the cellular amount of cAMP determined using the cAMP-enzyme immunoassay kit of Amersham. The I50 is determined from a dose-response curve in duplicate.
The effect of seven purine-analogs was measured after simultaneous addition with isoproterenol.

[7] = molecular target: IκB-α kinase; experiment: IκB-α kinase inhibition, in vitro kinase assay; assay type: biochemical
[8] = test system: Cytokinin-dependent tobacco callus Nicotiana tabacum L. cv. Wisconsins 38; experiment: Tobacco callus bioassay for cytotoxicity (herbicidal activity); assay type: cell-based; conditions: Nicotiana tabacum, 672 h
Outline: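 Compounds were prepared in DMSO as a 10^−3 M stock in water. Growth inhibition was scored from fresh callus weight gain after four weeks, with five replicates and the test run at least twice.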

[9] = read-out: 10^−5 M BAP IC50, 10^−5 M 6-benzylaminopurine, four weeks
[10] = read-out: 10^−6 M BAP IC50, 10^−6 M 6-benzylaminopurine, four weeks

Structure (SMILES): CC[C@H](CO)Nc1nc(NCc2cc(O)c(OC)cc2O)c2[nH]nc(C(C)C)c2n1
- IC50 [1]: 2 nM
- GI50 [2]: 3500 nM
- GI50 [3]: 5.7 µM

Structure (SMILES): COc1ccc(CNc2nc(NCc3ccc(OC)cc3)c3[nH]nc(C(C)C)c3n2)cc1 [Example 17, 5,7-di[(4-methoxybenzyl)amino]-3-isopropylpyrazolo[4,3-d]pyrimidine]
- melting point: 60 to 85 °C

Structure (SMILES): CC(C)c1n[nH]c2c(NCc3ccccc3)nc(NCCN)nc12 [Example 14, 7-benzylamino-5-(2-aminoethyl)amino-3-isopropylpyrazolo[4,3-d]pyrimidine]
- melting point: 145 to 147 °C
- IC50 [5]: 400 nM
- Effect: activation [6]: 1.3-fold activation
- IC50 [7]: 1200 nM
- IC50 [8, 9]: > 50 µM
- IC50 [8, 10]: > 50 µM

Structure (SMILES): CC(C)c1n[nH]c2c(Nc3cccc(Cl)c3)nc(Cl)nc12 [Example 11, 7-(3-chloroanilino)-5-chloro-3-isopropylpyrazolo[4,3-d]pyrimidine]
- melting point: 257 to 259 °C

Structure (SMILES): COc1cc(O)c(CNc2nc(N[C@@H](CO)C(C)C)nc3c(C(C)C)n[nH]c23)c(O)c1
- IC50 [1]: 0.7 nM
- GI50 [2]: 1200 nM
- GI50 [3]: 2.7 µM

Further lines, with some results ahead:

- IC50 [4]: 400 nM
Structure (SMILES): CC(C)c1n[nH]c2c(Nc3ccc(Cl)c(N)c3)nc(NCCCO)nc12

- IC50 [5]: 200 nM
- IC50 [4]: 300 nM
- IC50 [7]: 400 nM
Structure (SMILES): CC[C@H](CO)Nc1nc(NCc2ccc(Cl)c(N)c2N)c2[nH]nc(C(C)C)c2n1
- IC50 [8, 9]: 49 µM
- IC50 [8, 10]: 8.3 µM

- IC50 [4]: 3700 nM
Structure (SMILES): CC(C)c1n[nH]c2c(NCc3cccc(Cl)c3O)nc(NCCCO)nc12
